Results on five compounds are retold here after patent US20070191317A1, “VITAMIN D ANALOG - RAK, METHODS AND USES THEREOF” (WISCONSIN ALUMNI RESEARCH FOUNDATION, priority 2006, published 2007).

Entries after “also recorded” stand apart in the source; their conditions may differ.

The target of one test is T1, vitamin D receptors (Homo sapiens, UniProt P11473).
T1 sequence (P11473 1-427): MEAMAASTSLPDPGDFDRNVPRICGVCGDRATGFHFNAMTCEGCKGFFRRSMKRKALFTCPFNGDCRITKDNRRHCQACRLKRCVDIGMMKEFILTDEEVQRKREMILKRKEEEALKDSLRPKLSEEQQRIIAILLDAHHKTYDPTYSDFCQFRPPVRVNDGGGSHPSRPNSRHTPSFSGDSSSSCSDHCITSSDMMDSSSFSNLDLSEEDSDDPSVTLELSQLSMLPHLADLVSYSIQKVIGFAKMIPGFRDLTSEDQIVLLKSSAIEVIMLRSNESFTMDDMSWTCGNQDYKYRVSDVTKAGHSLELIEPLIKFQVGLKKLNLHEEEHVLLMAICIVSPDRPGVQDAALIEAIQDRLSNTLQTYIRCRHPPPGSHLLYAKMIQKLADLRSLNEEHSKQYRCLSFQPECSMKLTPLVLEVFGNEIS
To be noted: cited from earlier work.

The conditions of test [1]: cited from earlier work; for calcemic activity: as compared to 1α,25-dihydroxyvitamin D3.
A short description of test [2]: Bone calcium mobilization (serum calcium). It is filed as in vivo, Sprague-Dawley rats. To be noted: rats, ip, FIG. 2. Here is the method: FIG. 2 is a bar graph comparing the bone calcium mobilization activity of RAK with that of 1,25(OH)2D3.
(§1) Male, weanling Sprague-Dawley rats were placed on Diet 11 (0.47% Ca) diet+AEK for one week followed by Diet 11 (0.02% Ca)+AEK for 3 weeks. The rats were then switched to a diet containing 0.47% Ca for one week followed by two weeks on a diet containing 0.02% Ca. Dose administration began during the last week on 0.02% calcium diet. Four consecutive ip doses were given approximately 24 hours apart. Twenty-four hours after the last dose, blood was collected from the severed neck and the concentration of serum calcium determined as a measure of bone calcium mobilization. The first 10 cm of the intestine was also collected for intestinal calcium transport analysis using the everted gut sac method.

Test [3] addresses T2, full-length recombinant rat vitamin D receptor (Rattus norvegicus, UniProt P13053).
T2 construct: Full-length recombinant rat receptor was expressed in E. coli; histidine tag (C); made in house; host or cells: E. coli BL21(DE3) Codon Plus RIL
T2 sequence (P13053 1-423): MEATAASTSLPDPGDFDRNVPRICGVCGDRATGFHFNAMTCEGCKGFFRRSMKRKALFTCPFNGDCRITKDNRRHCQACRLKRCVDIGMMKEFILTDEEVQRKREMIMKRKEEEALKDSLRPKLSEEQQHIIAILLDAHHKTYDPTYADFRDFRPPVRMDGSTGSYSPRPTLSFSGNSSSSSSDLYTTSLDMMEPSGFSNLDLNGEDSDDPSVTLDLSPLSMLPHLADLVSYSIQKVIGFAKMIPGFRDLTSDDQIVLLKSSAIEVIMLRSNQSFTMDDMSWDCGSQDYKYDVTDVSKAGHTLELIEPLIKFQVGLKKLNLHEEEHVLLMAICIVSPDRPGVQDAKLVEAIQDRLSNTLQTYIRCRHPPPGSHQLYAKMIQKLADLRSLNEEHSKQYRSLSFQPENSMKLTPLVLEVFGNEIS
Put plainly: Vitamin D receptor competitive binding with [3H]-1,25-(OH)2-D3. To be noted: relative to 1α,25-dihydroxyvitamin D3; FIG. 1. Here is the method:
The first system was a nickel affinity resin that utilizes the C-terminal histidine tag on this protein. The protein that was eluted from this resin was further purified using ion exchange chromatography (S-Sepharose Fast Flow). Aliquots of the purified protein were quick frozen in liquid nitrogen and stored at −80° C. until use. For use in binding assays, the protein was diluted in TEDK50 (50 mM Tris, 1.5 mM EDTA, pH7.4, 5 mM DTT, 150 mM KCl) with 0.1% Chaps detergent. The receptor protein and ligand concentration was optimized such that no more than 20% of the added radiolabeled ligand was bound to the receptor.
The following day, 100 mcl of hydroxylapatite slurry (50%) was added to each tube and mixed at 10-minute intervals for 30 minutes. The hydroxylapaptite was collected by centrifugation and then washed three times with Tris-EDTA buffer (50 mM Tris, 1.5 mM EDTA, pH 7.4) containing 0.5% Titron X-100. After the final wash, the pellets were transferred to scintillation vials containing 4 ml of Biosafe II scintillation cocktail, mixed and placed in a scintillation counter. Total binding was determined from the tubes containing only radiolabeled ligand.

Test [4] deals with 24-hdyroxylase (24Ohase) gene promoter. Put plainly: In vitro transcription assay (luciferase reporter) in ROS 17/2.8 (bone) cells. The class given is cell-based. The conditions noted are these: Ros17/2.8 (bone) cells, relative to 1α,25-dihydroxyvitamin D3; FIG. 5. Here is the method: FIG. 5 is a graph comparing the in vitro transcription activity of RAK with that of 1,25(OH)2D3.
Transcription activity was measured in ROS 17/2.8 (bone) cells that were stably transfected with a 24-hdyroxylase (24Ohase) gene promoter upstream of a luciferase reporter gene (Arbour et al., 1998). Cells were given a range of doses. Sixteen hours after dosing the cells were harvested and luciferase activities were measured using a luminometer. (RLU=relative luciferase units)
(Reporter assays use an easily measured gene product as a stand-in for the process of interest.)

A short description of test [5]: Intestinal calcium transport (everted gut sac method). The class given is in vivo, Sprague-Dawley rats. The conditions noted are these: rats, ip; at equimolar quantities of the dose of 1α,25-dihydroxyvitamin D3; FIG. 3. As for the experimental part: FIG. 3 is a bar graph comparing the intestinal calcium transport activity of RAK with that of 1,25(OH)2D3.
as §1

The test system of the next test is HL-60 cells. Put plainly: HL-60 differentiation (nitro blue tetrazolium reduction). The class given is cell-based, human. To be noted: relative to 1α,25-dihydroxyvitamin D3; FIG. 4. Here is the method:
FIG. 4 is a graph comparing the percent HL-60 cell differentiation as a function of the concentration of RAK with that of 1,25(OH)2D3.
The study drugs were dissolved in ethanol and the concentrations determined using UV spectrophotometry. Serial dilutions were prepared so that a range of drug concentrations could be tested without changing the final concentration of ethanol (<0.2%) present in the cell cultures.
Human promyelocytic leukemia (HL60) cells were grown in RPMI-1640 medium containing 10% fetal bovine serum. The cells were incubated at 37° C. in the presence of 5% CO2.
HL60 cells were plated at 1.2×10^5 cells/ml. Eighteen hours after plating, cells in duplicate were treated with drug. Four days later, the cells were harvested and a nitro blue tetrazolium reduction assay was performed (Collins et al., 1979; J. Exp. Med. 149:969-974). The percentage of differentiated cells was determined by counting a total of 200 cells and recording the number that contained intracellular black-blue formazan deposits. Verification of differentiation to monocytic cells was determined by measuring phagocytic activity (data not shown).

In the case of “1α-hydroxy-2-methylene-19-nor-(20S)-homopregnacalciferol”, at vitamin D receptors, the “binding activity to vitamin D receptors” value was “relatively high binding activity”. Moreover, the calcemic activity result in test [1] was “little if any calcemic activity”.
As for “1α-hydroxy-2-methylene-19-nor-bishomopregnacalciferol”, the “binding activity to vitamin D receptors” value on vitamin D receptors is listed as “relatively high binding activity”. Moreover, the calcemic activity entry in test [1] is “little if any calcemic activity”.
`C[C@H](CCCC(C)(C)O)[C@H]1CC[C@H]2/C(=C/C=C3C[C@@H](O)C[C@H](O)C3)CCC[C@]12C` [1α,25-dihydroxy-19-nor-vitamin D3]: in test [1] (in vivo), the calcium mobilizing activity result is on record as “very low”.
`C=C1[C@H](O)CC(=C/C=C2\CCC[C@]3(C)[C@@H](CC)CC[C@@H]23)C[C@H]1O` [1α-hydroxy-2-methylene-19-nor-pregnacalciferol]: the “binding activity to vitamin D receptors” value at vitamin D receptors is recorded as “relatively high binding activity”. In addition, the calcemic activity result in test [1] is reported as “little if any calcemic activity”.
Turning to `C=C1[C@H](O)CC(=C/C=C2\CCC[C@]3(C)[C@@H]([C@H](C)CCCC(C)O)CC[C@@H]23)C[C@H]1O` (stereo partly drawn) [RAK, (20R,25R)-2-Methylene-19,26-dinor-1α,25-dihydroxyvitamin D3], the results for the “calcemic activity measured by bone calcium mobilization” value in test [2] (at 27 time molar quantity of the dose of 1α,25-dihydroxyvitamin D3) and in test [2] (at equimolar quantities of the dose of 1α,25-dihydroxyvitamin D3) were “limited calcemic activity” and “limited calcemic activity; also recorded: very low ability to mobilize calcium from bone”, respectively. In test [3], the “binding to the recombinant vitamin D receptor” value is reported as “comparable to 1α,25-dihydroxyvitamin D3; also recorded: relatively high binding”. The “stimulating transcription of a reporter gene” value in test [4] is “equally active”. For the same compound, the “calcemic activity measured by intestinal calcium transport” value in test [5] is on record as “limited calcemic activity; also recorded: very low intestinal calcium transport activity”. For the same compound, the “inducing differentiation of HL-60 cells” value in the test on HL-60 cells is “equally active as 1α,25-dihydroxyvitamin D3”.
